Entries after “also recorded” stand apart in the source; their conditions may differ. Read-outs that look alike come from different tables or passages of the source.
Legend:
Format in all cases: biochemical
IDH1 R132h = IDH1 R132h (Homo sapiens, UniProt O75874, R132H); test: Isocitrate dehydrogenase inhibition assay (NADPH/α-KG, WST-8 readout); conditions: for IC50: room temperature 60 min, absorbance 450 nm, repeated three times
Protocol: DMSO was used to configure the compounds into different concentrations as test samples. 2 mm NADPH (3 μl) and 1 m α-Kg (0.1 μl) was added to IDH1 buffer (pH 6.5; 96 μl) solution as reaction substrate in the reaction system. Then, the test samples (2.0 μl), IDH1 R132h (0.4 μl), PMS (0.1 μl) and 15 mM WST-8 (1.0 μl) were successively added to the above mixture and reacted at room temperature for 60 min. AGI-5198 was used as positive control and DMSO as the negative control. The absorption peak of 450 nm was detected by microplate reader. The test was repeated three times for each test samples, and the IC50 was calculated by GraphPad Prism.
We have learned that isocitrate dehydrogenase (IDH) gene mutations are closely related to the occurrence and development of tumors ([Fujii et al., 2016]). IDH mutations mainly occur in malignant tumors such as glioma, acute myeloid leukemia, chondrosarcoma, and intrahepatic cholangiocarcinoma. IDH mutation ultimately promote the occurrence and development of tumors ([Gondim et al., 2019]). Therefore, inhibition of IDH1 R132h activity was screened using the above compounds. AGI-5198 was used as a positive control in this experiment with the IC50 value of 0.04 μg/ml.

CD45 = target: T1, CD45 (Homo sapiens, UniProt P08575); test: Inhibition of protein tyrosine phosphatase (PTPs) assay, pNPP substrate: CD45
T1 sequence (P08575 26-1306): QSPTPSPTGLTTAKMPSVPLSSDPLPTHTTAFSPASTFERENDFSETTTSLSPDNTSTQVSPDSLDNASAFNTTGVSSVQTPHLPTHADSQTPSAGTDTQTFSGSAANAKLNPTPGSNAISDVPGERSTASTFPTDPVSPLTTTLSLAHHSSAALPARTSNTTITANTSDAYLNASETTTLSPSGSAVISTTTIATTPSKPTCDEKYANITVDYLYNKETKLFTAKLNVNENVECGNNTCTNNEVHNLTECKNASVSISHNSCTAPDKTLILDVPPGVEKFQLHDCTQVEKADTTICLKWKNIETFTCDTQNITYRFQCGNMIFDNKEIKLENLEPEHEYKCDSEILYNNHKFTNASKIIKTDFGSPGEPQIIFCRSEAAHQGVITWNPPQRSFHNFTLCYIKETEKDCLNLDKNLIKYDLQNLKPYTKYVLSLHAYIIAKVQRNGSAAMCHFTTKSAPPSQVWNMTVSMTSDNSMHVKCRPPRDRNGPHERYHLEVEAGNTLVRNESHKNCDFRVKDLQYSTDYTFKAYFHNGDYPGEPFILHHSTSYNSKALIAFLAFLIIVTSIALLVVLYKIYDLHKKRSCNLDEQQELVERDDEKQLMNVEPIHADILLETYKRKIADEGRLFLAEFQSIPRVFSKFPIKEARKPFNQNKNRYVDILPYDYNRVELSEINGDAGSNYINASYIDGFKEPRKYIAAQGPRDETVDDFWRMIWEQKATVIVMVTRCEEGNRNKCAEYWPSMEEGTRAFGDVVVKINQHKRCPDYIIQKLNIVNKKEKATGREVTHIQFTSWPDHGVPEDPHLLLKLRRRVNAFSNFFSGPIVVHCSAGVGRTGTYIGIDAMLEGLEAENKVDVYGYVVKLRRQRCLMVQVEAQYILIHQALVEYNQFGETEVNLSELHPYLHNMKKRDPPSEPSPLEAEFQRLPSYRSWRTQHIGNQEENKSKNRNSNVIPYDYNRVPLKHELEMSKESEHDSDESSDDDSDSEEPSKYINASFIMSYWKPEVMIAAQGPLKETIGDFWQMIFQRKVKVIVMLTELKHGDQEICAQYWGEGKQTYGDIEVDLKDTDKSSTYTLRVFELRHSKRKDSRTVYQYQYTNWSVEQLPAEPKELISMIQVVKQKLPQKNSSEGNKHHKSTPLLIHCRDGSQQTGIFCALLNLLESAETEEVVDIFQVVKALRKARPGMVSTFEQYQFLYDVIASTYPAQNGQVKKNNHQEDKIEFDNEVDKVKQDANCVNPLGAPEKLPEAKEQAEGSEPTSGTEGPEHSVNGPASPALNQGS
Description: (§1) Protein tyrosine phosphatase (PTPs) plays an important role in many human threatening diseases, such as PTP1B, an effective target for the treatment of type II diabetes; CD45, an effective target for the treatment of leukemia; and TCPTP, a reliable target for the treatment of cancer involved in multiple signaling pathways ([Ruddraraju and Zhang, 2017]). Nitrophenyl phosphate (pNPP) was used as substrate to determine the enzyme inhibition test. Fifty microliter reaction buffer (pH 6.5) including 50 mM HEPES, 100 mM NaCl, 1 mM EDTA, and 1 mM dithiothreitol (DTT) and compounds was added to 96 well plates, and incubate at room temperature for 15 min. Further, 50 μl reaction buffer with 50 mM pNPP was added and incubated at 37°C for 60 min. Na3VO4 was used as positive control and DMSO as the negative control. The phosphatase activity was determined by absorbance measured at 405 nm. The test was repeated three times for each compound. The IC50 value was derived from three independent experiments.
(§2) Protein tyrosine phosphatase (PTPs) plays an important role in many human threatening diseases, such as PTP1B, an effective target for the treatment of type II diabetes; CD45, an effective target for the treatment of leukemia; and TCPTP, a reliable target for the treatment of cancer involved in multiple signaling pathways ([Zhang, 2003]; [Vintonyak et al., 2009]).

TCPTP = target: T2, TCPTP (Homo sapiens, UniProt P17706); test: Inhibition of protein tyrosine phosphatase (PTPs) assay, pNPP substrate: TCPTP
T2 sequence (P17706 1-415): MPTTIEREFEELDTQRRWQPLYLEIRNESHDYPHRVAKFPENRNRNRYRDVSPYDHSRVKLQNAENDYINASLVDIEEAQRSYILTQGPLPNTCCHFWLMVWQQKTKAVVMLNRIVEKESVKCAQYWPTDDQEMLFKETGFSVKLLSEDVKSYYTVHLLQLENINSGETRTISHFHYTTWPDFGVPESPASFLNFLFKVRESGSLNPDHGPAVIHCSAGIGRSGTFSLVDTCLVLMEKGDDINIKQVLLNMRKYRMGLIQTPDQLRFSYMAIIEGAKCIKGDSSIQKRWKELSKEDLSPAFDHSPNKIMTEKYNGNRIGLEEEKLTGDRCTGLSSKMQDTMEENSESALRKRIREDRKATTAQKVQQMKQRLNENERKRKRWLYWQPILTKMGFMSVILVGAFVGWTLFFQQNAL
Description: as §1, §2

PTP1B = target: T3, PTP1B (Homo sapiens, UniProt P18031); test: Inhibition of protein tyrosine phosphatase (PTPs) assay, pNPP substrate: PTP1B; conditions: for inhibitory activity against PTP1B (in words): in vitro, compared with Na3VO4
T3 sequence (P18031 1-435): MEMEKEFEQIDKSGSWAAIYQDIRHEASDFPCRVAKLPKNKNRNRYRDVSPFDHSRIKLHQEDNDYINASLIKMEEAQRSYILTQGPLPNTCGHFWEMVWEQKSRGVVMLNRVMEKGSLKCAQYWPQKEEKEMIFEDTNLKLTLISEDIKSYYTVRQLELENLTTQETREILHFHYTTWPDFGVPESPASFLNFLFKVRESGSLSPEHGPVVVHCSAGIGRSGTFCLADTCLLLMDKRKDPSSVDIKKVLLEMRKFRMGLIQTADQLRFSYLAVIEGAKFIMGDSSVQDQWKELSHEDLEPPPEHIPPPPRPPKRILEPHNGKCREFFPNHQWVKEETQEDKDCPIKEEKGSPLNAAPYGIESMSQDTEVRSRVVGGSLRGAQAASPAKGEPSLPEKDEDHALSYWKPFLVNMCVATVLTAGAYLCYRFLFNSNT
Protocol: Nitrophenyl phosphate (pNPP) was used as substrate to determine the enzyme inhibition test. Fifty microliter reaction buffer (pH 6.5) including 50 mM HEPES, 100 mM NaCl, 1 mM EDTA, and 1 mM dithiothreitol (DTT) and compounds was added to 96 well plates, and incubate at room temperature for 15 min. Further, 50 μl reaction buffer with 50 mM pNPP was added and incubated at 37°C for 60 min. […] The phosphatase activity was determined by absorbance measured at 405 nm. The test was repeated three times for each compound. The IC50 value was derived from three independent experiments.

[1] = pNPP substrate, pH 6.5, 37°C 60 min, absorbance 405 nm, three independent experiments, read-out: IC50 CD45 (converted)
[2] = pNPP substrate, pH 6.5, 37°C 60 min, absorbance 405 nm, three independent experiments, read-out: IC50 TCPTP
[3] = pNPP substrate, pH 6.5, 37°C 60 min, absorbance 405 nm, three independent experiments, read-out: IC50 PTP1B (converted)
[4] = pNPP substrate, pH 6.5, 37°C 60 min, absorbance 405 nm, three independent experiments

Sequence of IDH1 R132h (O75874 whole entry R132H): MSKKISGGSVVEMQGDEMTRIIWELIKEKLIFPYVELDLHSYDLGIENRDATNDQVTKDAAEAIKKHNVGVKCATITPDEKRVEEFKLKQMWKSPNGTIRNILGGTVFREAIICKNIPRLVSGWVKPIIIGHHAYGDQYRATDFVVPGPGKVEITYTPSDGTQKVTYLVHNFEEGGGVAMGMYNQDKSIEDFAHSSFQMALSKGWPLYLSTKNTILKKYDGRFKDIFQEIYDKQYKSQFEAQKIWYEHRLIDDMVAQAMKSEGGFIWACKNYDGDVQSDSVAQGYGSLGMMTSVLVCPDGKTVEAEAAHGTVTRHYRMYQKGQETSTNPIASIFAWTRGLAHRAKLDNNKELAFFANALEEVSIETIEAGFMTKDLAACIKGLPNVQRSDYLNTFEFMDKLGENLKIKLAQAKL

IC50 (IDH1 R132h)	IC50 (CD45; [1])	IC50 (TCPTP; [2])	IC50 (PTP1B; [3])	SMILES	other results
36 µM	–	–	–	COC(=O)C1CC2(O)CC3(C)OC(=O)c4c(O)cc(OC)cc4C3=CC2(O)O1 (centres unmarked) [Compound 4, Alternapyrone N]	inhibitory activity against IDH1 R132h (in words) (IDH1 R132h): inhibitory activities
–	> 342 µM	> 342 µM	187 µM	COc1cc(O)c2c(c1)C1=C[C@@H](O)[C@@H](O)C[C@]1(C)OC2=O [Compound 11, 5′-epialtenuene]	–
101 µM	–	–	–	COc1cc(O)c2c(c1)C1(CC(O)C(O)C=C1C)OC2=O (centres unmarked) [Compound 1, Alternafurone A]	inhibitory activity against IDH1 R132h (in words) (IDH1 R132h): inhibitory activities
–	–	–	–	[Na+].[Na+].[Na+].[O]=[V]([O-])([O-])[O-] [Na3VO4, reference compound]	IC50 CD45 (CD45; [4]): 0.36 ± 0.09 µg/mL; IC50 TCPTP (TCPTP; [4]): 0.44 ± 0.11 µg/mL
–	> 340 µM	> 340 µM	3.3 µM	COc1cc(O)c2c(c1)C1C[C@H](O)[C@@H](O)C[C@@]1(C)OC2=O (some centres unmarked) [Compound 9, 3-epidihydroaltenuene A]	inhibitory activity against PTP1B (in words) (PTP1B): specific and significant inhibition; also recorded: significant inhibitory activity
–	104 µM	> 526 µM	> 526 µM	Cc1cc(=O)c2c(C)cc(O)cc2o1 [Compound 17, 2,5-dimethyl-7-hydroxychromone]	–
66.4 µM	–	–	–	COc1cc(O)c2c(c1)C1(CC(O)C(O)C=C1C)OC2=O (centres unmarked) [Compound 2, Alternafurone B]	inhibitory activity against IDH1 R132h (in words) (IDH1 R132h): inhibitory activities
–	> 427 µM	> 427 µM	383 µM	COc1cc(O)cc(C2=C(C)C[C@@H](O)C2=O)c1 [Compound 14, (+)-nigrosporaol A]	–
0.0865 µM	–	–	–	Cc1ccccc1C(C(=O)NC1CCCCC1)N(C(=O)Cn1ccnc1C)c1cccc(F)c1 (centres unmarked) [AGI-5198, reference compound]	–
–	> 342 µM	> 342 µM	156 µM	COc1cc(O)c2c(c1)C1=C[C@H](O)[C@@H](O)C[C@]1(C)OC2=O [Compound 10, 5-hydroxyepialtenuene]	–
–	120 µM	> 485 µM	> 485 µM	Cc1cc(O)cc2oc(CO)cc(=O)c12 [Compound 19, 7-hydroxy-2-hydroxymethyl-5-methyl-4H-chromen-4-one]	–
> 147 µM	–	–	–	COc1cc(O)c2c(c1)C1=CC3(CC(O)C(=O)O3)C(O)CC1(C)OC2=O (centres unmarked) [Compound 3, Alternapyrone M]	–
–	–	–	–	COc1cc(O)c2c(=O)oc3cc(O)cc(C)c3c2c1 [Compound 7, alternariol 9-methyl ether]	IC50 (CD45): 72.8 µM; IC50 (TCPTP): 211 µM; IC50 (PTP1B): 139 µM
–	–	–	–	Cc1cc(O)cc2oc(=O)c3c(O)cc(O)cc3c12 [Compound 6, alternariol]	IC50 (CD45): 22.5 µM; inhibitory activity against CD45 (in words) (CD45; in vitro, compared with Na3VO4): definite inhibitory activity; IC50 (TCPTP): 30.2 µM; inhibitory activity against TCPTP (in words) (TCPTP; in vitro, compared with Na3VO4): definite inhibitory activity; IC50 (PTP1B): 61 µM

SMILES	IC50 (IDH1 R132h)	IC50 (CD45; [1])	IC50 (TCPTP; [2])	IC50 (PTP1B; [3])	other results
COc1cc(O)c2c(c1)C1=CC(O)C(O)CC1(C)OC2=O (centres unmarked) [Compound 12, 4′-epialtenuene]	–	> 342 µM	> 342 µM	25.5 µM	inhibitory activity against PTP1B (in words) (PTP1B): inhibitory activity

From publication PMC9556845 (Frontiers in Microbiology, 2022)
